# According to patent US8324247B2, “Method for treating pulmonary arterial hypertension” (Ventrus Biosciences, Inc., priority 2009, dated 2012):
# System: acute hypoxia-induced pulmonary hypertension
# Experiment: Acute hypoxia-induced pulmonary hypertension in rats (mean pulmonary arterial pressure)
# Assay type: in vivo, rat
# Experimental: Measurement of Pulmonary and Systemic Arterial Pressure
# Male Sprague-Dawley rats were obtained from Charles River Breeding Laboratories (Wilmington, Mass.) at 9-10 wk of age. For pulmonary arterial pressure measurement, a closed-chest technique (1-4). Under ketamine (80 mg/kg) and xylazine (5 mg/kg) anesthesia, a small transverse cut was made in the proximal right external jugular vein through passed. The introducer was a blunted 7.5 cm, 19-gauge needle with the tip turned up 30 degrees. The Silastic catheter filled with heparinsaline solution was passed through the introducer and attached by a 25 gauge blunted needle to a pressure transducer (model CP-01, Century Technology, Inglewood, Calif.) coupled to a polygraph (model 7, Grass Instruments, Quincy, Mass.). After the introducer was placed in the right ventricular cavity, the tip was directed anteriorly. The catheter was then advanced into the pulmonary artery. Catheter position was identified by the pressure tracing. The introducer was slipped out over the catheter and removed after a typical pulmonary arterial pressure tracing was recorded. […] One day after catheterization, mean pulmonary arterial pressure (MPAP), mean systemic arterial pressure (MSAP) were recorded through the pulmonary and femora arterial catheters via transducers coupled to the polygraph. […]
structure (smiles),measurement,setting,value
"CN1CCCC[C@H]1CCc1ccccc1NC(=O)/C=C/c1ccccc1 [Iferanserin, S-2′-[2-(1-methyl-2-piperidyl)ethyl] cinnamanilide]",effect on acute hypoxia-induced pulmonary hypertension,"adult male Sprague-Dawley rats, 3 and 10 mg/kg p.o., given 45 min before normobaric hypoxia (10% O2) for 90 min",partially inhibited
same,dose dependence of the effect on acute hypoxia-induced pulmonary hypertension,"adult rats, within the range of 3-10 mg/kg, p.o.",no dose-dependent response
